# Source: patent publication US20260262643A1, “HERBICIDAL BENZOXAZINES” (FMC CORPORATION, priority 2022, published 2026)
# Columns and labels:
# green foxtail [1] = assay: Test C preemergence; type: in vivo, Setaria viridis; conditions: preemergence, 0 to 100 scale (0 no effect, 100 complete control)
# Method in brief: (§1)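 Visual injury score, 0–100 (100 = complete control), taken 10 days after treatment relative to untreated controls. Pre: directed spray onto soil over sown seeds. Post: foliar spray at one- to two-leaf stage, 2–10 cm. Solvent/surfactant formulation; loam–sand soil; greenhouse.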
# green foxtail [2] = assay: Test C postemergence; type: in vivo, Setaria viridis; conditions: 10 days
# Method in brief: as §1
# oat, wild [3] = assay: Test C preemergence; type: in vivo, Avena fatua; conditions: preemergence, 0 to 100 scale (0 no effect, 100 complete control)
# Method in brief: as §1
# ragweed [4] = assay: Test C postemergence; type: in vivo, Ambrosia artemisiifolia; conditions: 125 g ai/ha, postemergence, 10 days; 0 to 100 scale, 0 no effect, 100 complete control
# Method in brief: as §1
# barnyardgrass [5] = assay: Test D flooded paddy test; type: in vivo, Echinochloa crus-galli; conditions: 250 g ai/ha, applied to paddy water, visual rating after 13 to 14 days, scale 0 to 100 (0 no effect, 100 complete control)
# Method in brief: (§2)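 Plants at the 2-leaf stage were grown in pots flooded to 3 cm, and compound was applied directly into the paddy water, with depth kept throughout. After 13–14 days in a greenhouse, injury was rated visually against untreated controls on a 0–100 scale (100 = complete control); a dash means not tested.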
# barnyardgrass [6] = assay: Test C preemergence; type: in vivo, Echinochloa crusgalli; conditions: 0 to 100 scale (0 no effect, 100 complete control)
# Method in brief: as §1
# galium = assay: Test C postemergence; type: in vivo, Galium aparine; conditions: 10 days
# Method in brief: as §1
# barnyardgrass [7] = assay: Test C postemergence; type: in vivo, Echinochloa crusgalli; conditions: 10 days
# Method in brief: as §1
# corn [8] = assay: Test C preemergence; type: in vivo, Zea mays; conditions: preemergence, 0 to 100 scale (0 no effect, 100 complete control)
# Method in brief: as §1
# ryegrass, Italian [9] = assay: Test C preemergence; type: in vivo, Lolium multiflorum; conditions: preemergence, 0 to 100 scale (0 no effect, 100 complete control)
# Method in brief: as §1
# horseweed = assay: Test C postemergence; type: in vivo, Erigeron canadensis; conditions: 10 days
# Method in brief: as §1
# blackgrass [10] = assay: Test C preemergence; type: in vivo, Alopecurus myosuroides; conditions: 0 to 100 scale (0 no effect, 100 complete control)
# Method in brief: as §1
# wheat [11] = assay: Test C postemergence; type: in vivo, Triticum aestivum; conditions: 125 g ai/ha, postemergence, 10 days; 0 to 100 scale, 0 no effect, 100 complete control
# Method in brief: as §1
# sedge, umbrella = assay: Test D flooded paddy test; type: in vivo, Cyperus difformis; conditions: 250 g ai/ha, applied to paddy water, visual rating after 13 to 14 days, scale 0 to 100 (0 no effect, 100 complete control)
# Method in brief: as §2
# ragweed [12] = assay: Test C preemergence; type: in vivo, Ambrosia artemisiifolia; conditions: preemergence, 0 to 100 scale (0 no effect, 100 complete control)
# Method in brief: as §1
# oat, wild [13] = assay: Test C postemergence; type: in vivo, Avena fatua; conditions: 125 g ai/ha, postemergence, 10 days; 0 to 100 scale, 0 no effect, 100 complete control
# Method in brief: as §1
# wheat [14] = assay: Test C preemergence; type: in vivo, Triticum aestivum; conditions: preemergence, 0 to 100 scale (0 no effect, 100 complete control)
# Method in brief: as §1
# ryegrass, Italian [15] = assay: Test C postemergence; type: in vivo, Lolium multiflorum; conditions: 125 g ai/ha, postemergence, 10 days; 0 to 100 scale, 0 no effect, 100 complete control
# Method in brief: as §1
# soybean [16] = assay: Test C postemergence; type: in vivo, Glycine max; conditions: 125 g ai/ha, postemergence, 10 days; 0 to 100 scale, 0 no effect, 100 complete control
# Method in brief: as §1
# kochia [17] = assay: Test C postemergence; type: in vivo, Bassia scoparia; conditions: 125 g ai/ha, postemergence, 10 days; 0 to 100 scale, 0 no effect, 100 complete control
# Method in brief: as §1
# pigweed, palmer [18] = assay: Test C preemergence; type: in vivo, Amaranthus palmeri; conditions: preemergence, 0 to 100 scale (0 no effect, 100 complete control)
# Method in brief: as §1
# pigweed, palmer [19] = assay: Test C postemergence; type: in vivo, Amaranthus palmeri; conditions: 125 g ai/ha, postemergence, 10 days; 0 to 100 scale, 0 no effect, 100 complete control
# Method in brief: as §1
# corn [20] = assay: Test C postemergence; type: in vivo, Zea mays; conditions: 10 days
# Method in brief: as §1
# soybean [21] = assay: Test C preemergence; type: in vivo, Glycine max; conditions: preemergence, 0 to 100 scale (0 no effect, 100 complete control)
# Method in brief: as §1
# ducksalad = assay: Test D flooded paddy test; type: in vivo, Heteranthera limosa; conditions: 250 g ai/ha, applied to paddy water, visual rating after 13 to 14 days, scale 0 to 100 (0 no effect, 100 complete control)
# Method in brief: as §2
# kochia [22] = assay: Test C preemergence; type: in vivo, Bassia scoparia; conditions: preemergence, 0 to 100 scale (0 no effect, 100 complete control)
# Method in brief: as §1
# blackgrass [23] = assay: Test C postemergence; type: in vivo, Alopecurus myosuroides; conditions: 10 days
# Method in brief: as §1
# rice = assay: Test D flooded paddy test; type: in vivo, Oryza sativa; conditions: 250 g ai/ha, applied to paddy water, visual rating after 13 to 14 days, scale 0 to 100 (0 no effect, 100 complete control)
# Method in brief: as §2
# [24] = 125 g ai/ha, postemergence, 0 to 100 scale, 0 no effect, 100 complete control
# [25] = Postemergence, 500 g ai/ha, visual 0 to 100 scale (0 no effect, 100 complete control)
# [26] = Preemergence, 500 g ai/ha, visual rating after 10 days
# [27] = Test C, preemergence, 125 g ai/ha
smiles,measurement,setting,value
CCc1ccc(-n2cnc(C(C)(C)O)n2)cc1C(=O)N1C[C@H](C)Oc2c(Cl)cccc21 [Compound 277],"Foxtail, Green plant response rating",green foxtail [1]; 500 g ai/ha,100
same,"Foxtail, Green plant response rating","green foxtail [1]; Test C, 125 g ai/ha",100
same,"Plant response rating, Foxtail, Green",green foxtail [2]; [24],90
same,"Plant response rating, Foxtail, Green",green foxtail [2]; [25],90
same,"Oat, Wild plant response rating","oat, wild [3]; 500 g ai/ha",90
same,"Oat, Wild plant response rating","oat, wild [3]; Test C, 125 g ai/ha",80
same,"Plant response rating, Ragweed",ragweed [4],80
same,"Plant response rating, Barnyardgrass (Flood)",barnyardgrass [5],55
same,"Plant response rating, Barnyardgrass",barnyardgrass [6]; [26],100
same,Barnyardgrass plant response rating,barnyardgrass [6]; [27],100
same,"Plant response rating, Galium",galium; [24],100
same,"Plant response rating, Galium",galium; [25],100
same,"Plant response rating, Barnyardgrass",barnyardgrass [7]; [24],100
same,"Plant response rating, Barnyardgrass",barnyardgrass [7]; [25],100
same,Corn plant response rating,corn [8]; 500 g ai/ha,80
same,Corn plant response rating,"corn [8]; Test C, 125 g ai/ha",50
same,"Ryegrass, Italian plant response rating","ryegrass, Italian [9]; 500 g ai/ha",100
same,"Ryegrass, Italian plant response rating","ryegrass, Italian [9]; Test C, 125 g ai/ha",80
same,"Plant response rating, Horseweed",horseweed; [24],0
same,"Plant response rating, Horseweed",horseweed; [25],30
same,"Plant response rating, Blackgrass",blackgrass [10]; [26],90
same,Blackgrass plant response rating,blackgrass [10]; [27],80
same,"Plant response rating, Wheat",wheat [11],50
same,"Plant response rating, Sedge, Umbrella (Flood)","sedge, umbrella",98
same,Ragweed plant response rating,ragweed [12]; 500 g ai/ha,70
same,Ragweed plant response rating,"ragweed [12]; Test C, 125 g ai/ha",30
same,"Plant response rating, Oat, Wild","oat, wild [13]",80
same,Wheat plant response rating,wheat [14]; 500 g ai/ha,80
same,Wheat plant response rating,"wheat [14]; Test C, 125 g ai/ha",50
same,"Plant response rating, Ryegrass, Italian","ryegrass, Italian [15]",90
same,"Plant response rating, Soybean",soybean [16],100
same,"Plant response rating, Kochia",kochia [17],70
same,"Pigweed, Palmer plant response rating","pigweed, palmer [18]; 500 g ai/ha",100
same,"Pigweed, Palmer plant response rating","pigweed, palmer [18]; Test C, 125 g ai/ha",100
same,"Plant response rating, Pigweed, Palmer","pigweed, palmer [19]",80
same,"Plant response rating, Corn",corn [20]; [24],90
same,"Plant response rating, Corn",corn [20]; [25],100
same,Soybean plant response rating,soybean [21]; 500 g ai/ha,100
same,Soybean plant response rating,"soybean [21]; Test C, 125 g ai/ha",90
same,"Plant response rating, Ducksalad (Flood)",ducksalad,40
same,Kochia plant response rating,kochia [22]; 500 g ai/ha,90
same,Kochia plant response rating,"kochia [22]; Test C, 125 g ai/ha",70
same,"Plant response rating, Blackgrass",blackgrass [23]; [24],80
same,"Plant response rating, Blackgrass",blackgrass [23]; [25],90
same,"Plant response rating, Rice (Flood)",rice,15
